Entries after “also recorded” stand apart in the source; their conditions may differ. Square brackets hold non-standard residues; d marks the D form. Ends that are not written are not given here. pGlu = O=C1CC[C@@H](C(=O)O)N1
What was measured:
Type in all cases: in vivo, human
panelists [1] = test: Degree of Difference (DOD) of test rice from control rice; set-up: Degree of Difference in rice: scale not given here; conditions: for Degree of Difference in rice: difference from Control; for Degree of Difference in rice / DOD from Control: rice; for DOD from Control: scale 0.0 to 10.0
Excerpt: The present example describes the evaluation of the descriptive profile of pGlu-Cys (identified as “FE-35”), pGlu-Cys-Gly (identified as “FE-36”), pGlu-Cys-Cys (identified as “FE-37”), pGlu-Cys-Val (identified as “FE-38”) and pGlu-Val-Cys (identified as “UE-30”) peptides of the present application. An objective of the study was to understand the efficacy of flavor enhancer compounds FE-35, FE-36, FE-37, FE-38 and UE-30 in increasing concentrations both in solution and in rice, and to determine a Degree of Difference (DOD) score between a control rice sample (which includes NaCl, and no flavor composition peptide) and the test rice samples (with added flavor composition peptides at increasing concentrations).

panelists [2] = test: Return to baseline protocol: salt reference re-tasted at 1 minute intervals
Method: After evaluating the sample for salt and other perceptions (step 3 above), each panelist re-tasted the salt reference (5.0 intensity) at 1 minute intervals until their perception of the saltiness intensity of the reference returned to 5.0. Each panelist recorded salt intensity at each interval and took qualitative notes on other perceptions seen in aftertaste. Attribute Perception Protocol • The panelists evaluated each sample using the following procedure • Descriptive Profiles (flavor and chemical feeling factors) of 5 levels of salt enhancing solutions • Individual data was collected for the flavor and chemical feeling factors of the product in-mouth • Increased Salt Perception Protocol • Each panelist tasted salt 5 reference (0.35% salt solution)—to ground themselves on salt intensity of 5.0. • Each panelist tasted the test sample (0.1 ppb, 0.5 ppb, 1.0 ppb, 10.0 ppb or 40.0/50.0 ppb all in 0.2% NaCl solution: only one per session) • Each panelist then re-tasted the salt 5 reference and rated it for salt intensity as well as any other basic taste, chemical feeling factor, or aromatic perceived. This captured any increased salt perception indicated by the test sample as well as any other perceptions present. • Return to Baseline Protocol • After evaluating the sample for salt & other perceptions, panelists re-tasted the salt 5 reference at 1 minute intervals until their perception of the salt 5 saltiness intensity had returned to 5.0. Each panelist recorded their salt intensity at each interval and took qualitative notes on other perceptions seen in aftertaste. Sample Preparation

panelists [3] = test: Increased salt perception protocol: salt 5 reference (0.35% salt solution) re-tasted after expectoration of test sample; conditions: for Astringent, after-expectoration perception / Bitter, after-expectoration perception / Flinty/Mineral, after-expectoration perception / Metallic, after-expectoration perception / Numbing, after-expectoration perception / Salt, after-expectoration perception (mean salt perception after expectoration) / Sour, after-expectoration perception / Sweet, after-expectoration perception: salt 5 reference re-tasted, mean score
Excerpt: 1. Each panelist tasted a salt reference (0.35% salt solution) with a reference salt intensity of 5.0 which provided a baseline for each panelist for salt intensity. 2. Each panelist tasted a test sample (0.1 ppb, 0.5 ppb, 1.0 ppb, 10.0 ppb or 40.0 ppb all in 0.2% NaCl solution). Only one sample was tasted per session. 3. Each panelist re-tasted the salt reference (5.0 intensity) and rated it for salt intensity as well as any other basic taste, chemical feeling factor, or aromatic perceived. Thus, any increased salt perception as a result of the test sample would be determined, as well as any other perceptions present. Attribute Perception Protocol • The panelists evaluated each sample using the following procedure • Descriptive Profiles (flavor and chemical feeling factors) of 5 levels of salt enhancing solutions • Individual data was collected for the flavor and chemical feeling factors of the product in-mouth • Increased Salt Perception Protocol • Each panelist tasted salt 5 reference (0.35% salt solution)—to ground themselves on salt intensity of 5.0. • Each panelist tasted the test sample (0.1 ppb, 0.5 ppb, 1.0 ppb, 10.0 ppb or 40.0/50.0 ppb all in 0.2% NaCl solution: only one per session) • Each panelist then re-tasted the salt 5 reference and rated it for salt intensity as well as any other basic taste, chemical feeling factor, or aromatic perceived. This captured any increased salt perception indicated by the test sample as well as any other perceptions present. • Return to Baseline Protocol • After evaluating the sample for salt & other perceptions, panelists re-tasted the salt 5 reference at 1 minute intervals until their perception of the salt 5 saltiness intensity had returned to 5.0. Each panelist recorded their salt intensity at each interval and took qualitative notes on other perceptions seen in aftertaste. Sample Preparation

[pGlu]-Cys [FE-35]
Whether consumers notice a difference between the Control and test rice (DOD) (panelists [1]; 1 ppb): Consumers will likely not notice the difference | Whether consumers notice a difference between the Control and test rice (DOD) (panelists [1]; 10 and 100 ppb): Consumers will likely notice a difference | Degree of Difference in rice (panelists [1]; 1.0 ppb): 3.8 | Degree of Difference in rice (panelists [1]; 10.0 ppb): 5.0 | Degree of Difference in rice (panelists [1]; 100.0 ppb): 5.0 | DOD from Control (panelists [1]; 1.0 ppb (5 ppm)): 3.8 | DOD from Control (panelists [1]; 10.0 ppb (50 ppm)): 5.0 | DOD from Control (panelists [1]; 100 ppb (50 ppm)): 5.0

[pGlu]-Cys-Cys (cysteine pairing not given here) [FE-37]
Whether consumers notice a difference between the Control and test rice (DOD) (panelists [1]; 1 and 10 ppb): Consumers will may or may not notice a difference | Whether consumers notice a difference between the Control and test rice (DOD) (panelists [1]; 10 ppb): Consumers may or may not notice a difference | Whether consumers notice a difference between the Control and test rice (DOD) (panelists [1]; 100 ppb): Consumers will likely notice a difference | Degree of Difference in rice (panelists [1]; 1.0 ppb): 4.0 | Degree of Difference in rice (panelists [1]; 10.0 ppb): 4.5 | Degree of Difference in rice (panelists [1]; 100.0 ppb): 5.0 | DOD from Control (panelists [1]; 1.0 ppb (5 ppm)): 4.0 | DOD from Control (panelists [1]; 10.0 ppb (50 ppm)): 4.5 | DOD from Control (panelists [1]; 100 ppb (50 ppm)): 5.0

[pGlu]-Cys-Gly [FE-36]
Whether consumers notice a difference between the Control and test rice (DOD) (panelists [1]; all concentrations): Consumers will likely notice a difference | Degree of Difference in rice (panelists [1]; 1.0 ppb): 5.0 | Degree of Difference in rice (panelists [1]; 10.0 ppb): 5.0 | Degree of Difference in rice (panelists [1]; 100.0 ppb): 5.5 | DOD from Control (panelists [1]; 1.0 ppb (5 ppm)): 5.0 | DOD from Control (panelists [1]; 10.0 ppb (50 ppm)): 5.0 | DOD from Control (panelists [1]; 100 ppb (50 ppm)): 5.5

[pGlu]-Cys-Val [FE-38]
Whether consumers notice a difference between the Control and test rice (DOD) (panelists [1]; 1 and 100 ppb): Consumers may or may not notice a difference | Whether consumers notice a difference between the Control and test rice (DOD) (panelists [1]; 10 ppb): Consumers will likely notice a difference | Degree of Difference in rice (panelists [1]; 1.0 ppb): 4.5 | Degree of Difference in rice (panelists [1]; 10.0 ppb): 5.0 | Degree of Difference in rice (panelists [1]; 100.0 ppb): 4.5 | DOD from Control (panelists [1]; 1.0 ppb (5 ppm)): 4.5 | DOD from Control (panelists [1]; 10.0 ppb (50 ppm)): 5.0 | DOD from Control (panelists [1]; 100 ppb (50 ppm)): 4.5

[pGlu]-Val [SE-14]
Mean time needed to return to baseline (panelists [2]; 0.1 ppb in 0.2% NaCl): 4.6 min | Mean time needed to return to baseline (min.) (panelists [2]; 0.1 ppb in 0.2% NaCl): 4.6 min | Time needed to return to baseline as the concentration increases (panelists [2]; 0.1 to 40.0/50.0 ppb): increases slightly overall; also recorded: slight increase overall | Mean time needed to return to baseline (panelists [2]; 0.5 ppb in 0.2% NaCl): 4.6 min | Mean time needed to return to baseline (min.) (panelists [2]; 0.5 ppb in 0.2% NaCl): 4.6 min | Mean time needed to return to baseline (panelists [2]; 1.0 ppb in 0.2% NaCl): 3.9 min | Mean time needed to return to baseline (min.) (panelists [2]; 1.0 ppb in 0.2% NaCl): 3.9 min | Mean time needed to return to baseline (panelists [2]; 10.0 ppb in 0.2% NaCl): 5.8 min | Mean time needed to return to baseline (min.) (panelists [2]; 10.0 ppb in 0.2% NaCl): 5.8 min | Mean time needed to return to baseline (panelists [2]; 50.0 ppb in 0.2% NaCl): 6.6 min | Mean time needed to return to baseline (min.) (panelists [2]; 50.0 ppb in 0.2% NaCl): 6.6 min | Astringent, after-expectoration perception (panelists [3]; 0.1 ppb in 0.2% NaCl): 0.0 | Bitter, after-expectoration perception (panelists [3]; 0.1 ppb in 0.2% NaCl): 0.0 | Flinty/Mineral, after-expectoration perception (panelists [3]; 0.1 ppb in 0.2% NaCl): 1.1 | Metallic, after-expectoration perception (panelists [3]; 0.1 ppb in 0.2% NaCl): 0.3 | Numbing, after-expectoration perception (panelists [3]; 0.1 ppb in 0.2% NaCl): 0.0 | Salt, after-expectoration perception (mean salt perception after expectoration) (panelists [3]; 0.1 ppb in 0.2% NaCl): 6.7 | Sour, after-expectoration perception (panelists [3]; 0.1 ppb in 0.2% NaCl): 0.0 | Sweet, after-expectoration perception (panelists [3]; 0.1 ppb in 0.2% NaCl): 0.0 | Level of the aromatics, basic tastes and chemical feeling factors after expectoration with increasing concentration (panelists [3]; 0.1 to 40.0/50.0 ppb): do not increase | Salt perception after expectoration as the concentration increases (panelists [3]; 0.1 to 40.0/50.0 ppb in 0.2% NaCl): increases slightly; also recorded: slight increase | Astringent, after-expectoration perception (panelists [3]; 0.5 ppb in 0.2% NaCl): 0.1 | Bitter, after-expectoration perception (panelists [3]; 0.5 ppb in 0.2% NaCl): 0.0 | Flinty/Mineral, after-expectoration perception (panelists [3]; 0.5 ppb in 0.2% NaCl): 1.0 | Metallic, after-expectoration perception (panelists [3]; 0.5 ppb in 0.2% NaCl): 0.1 | Numbing, after-expectoration perception (panelists [3]; 0.5 ppb in 0.2% NaCl): 0.0 | Salt, after-expectoration perception (mean salt perception after expectoration) (panelists [3]; 0.5 ppb in 0.2% NaCl): 7.0 | Sour, after-expectoration perception (panelists [3]; 0.5 ppb in 0.2% NaCl): 0.0 | Sweet, after-expectoration perception (panelists [3]; 0.5 ppb in 0.2% NaCl): 0.0 | Astringent, after-expectoration perception (panelists [3]; 1.0 ppb in 0.2% NaCl): 0.1 | Bitter, after-expectoration perception (panelists [3]; 1.0 ppb in 0.2% NaCl): 0.0 | Flinty/Mineral, after-expectoration perception (panelists [3]; 1.0 ppb in 0.2% NaCl): 0.5 | Metallic, after-expectoration perception (panelists [3]; 1.0 ppb in 0.2% NaCl): 0.1 | Numbing, after-expectoration perception (panelists [3]; 1.0 ppb in 0.2% NaCl): 0.0 | Salt, after-expectoration perception (mean salt perception after expectoration) (panelists [3]; 1.0 ppb in 0.2% NaCl): 7.0 | Sour, after-expectoration perception (panelists [3]; 1.0 ppb in 0.2% NaCl): 0.0 | Sweet, after-expectoration perception (panelists [3]; 1.0 ppb in 0.2% NaCl): 0.0 | Astringent, after-expectoration perception (panelists [3]; 10.0 ppb in 0.2% NaCl): 0.0 | Bitter, after-expectoration perception (panelists [3]; 10.0 ppb in 0.2% NaCl): 0.0 | Flinty/Mineral, after-expectoration perception (panelists [3]; 10.0 ppb in 0.2% NaCl): 1.0 | Metallic, after-expectoration perception (panelists [3]; 10.0 ppb in 0.2% NaCl): 0.2 | Numbing, after-expectoration perception (panelists [3]; 10.0 ppb in 0.2% NaCl): 0.0 | Salt, after-expectoration perception (mean salt perception after expectoration) (panelists [3]; 10.0 ppb in 0.2% NaCl): 7.3 | Sour, after-expectoration perception (panelists [3]; 10.0 ppb in 0.2% NaCl): 0.0 | Sweet, after-expectoration perception (panelists [3]; 10.0 ppb in 0.2% NaCl): 0.0 | Astringent, after-expectoration perception (panelists [3]; 50.0 ppb in 0.2% NaCl): 0.1 | Bitter, after-expectoration perception (panelists [3]; 50.0 ppb in 0.2% NaCl): 0.0 | Flinty/Mineral, after-expectoration perception (panelists [3]; 50.0 ppb in 0.2% NaCl): 0.6 | Metallic, after-expectoration perception (panelists [3]; 50.0 ppb in 0.2% NaCl): 0.1 | Numbing, after-expectoration perception (panelists [3]; 50.0 ppb in 0.2% NaCl): 0.0 | Salt, after-expectoration perception (mean salt perception after expectoration) (panelists [3]; 50.0 ppb in 0.2% NaCl): 8.0 | Sour, after-expectoration perception (panelists [3]; 50.0 ppb in 0.2% NaCl): 0.0 | Sweet, after-expectoration perception (panelists [3]; 50.0 ppb in 0.2% NaCl): 0.0 | Umami like swelling of lips and tongue, after expectoration (panelists [3]; all levels): Panelists also experience Umami like swelling of lips and tongue | Salt perception from in-mouth to after expectoration (panelists [3]; all samples, 0.1 to 40.0/50.0 ppb): increases after expectoration (from in-mouth) in all samples; also recorded: noticeable increase

[pGlu]-Val-Cys [UE-30]
Whether consumers notice a difference between the Control and test rice (DOD) (panelists [1]; 1 ppb): Consumers may or may not notice a difference | Whether consumers notice a difference between the Control and test rice (DOD) (panelists [1]; 10 and 100 ppb): Consumers will likely notice a difference | Degree of Difference in rice (panelists [1]; 1.0 ppb): 4.5 | Degree of Difference in rice (panelists [1]; 10.0 ppb): 5.0 | Degree of Difference in rice (panelists [1]; 100.0 ppb): 5.0 | DOD from Control (panelists [1]; 1.0 ppb (5 ppm)): 4.5 | DOD from Control (panelists [1]; 10.0 ppb (50 ppm)): 5.0 | DOD from Control (panelists [1]; 100 ppb (50 ppm)): 5.0

From US10856562B2, “Flavor composition and edible compositions containing same” (MARS, INCORPORATED, priority 2013, dated 2020)
